Test results reported in paper PMC11879280, “Antimicrobial activity of peptoids against Metallo-β-lactamase-producing Klebsiella pneumoniae, Acinetobacter baumannii, Pseudomonas aeruginosa, and other WHO priority pathogens, including Candida auris” (Journal of Applied Microbiology, 2025).
Like-named read-outs stand apart in the source and are kept apart here. Square brackets hold non-standard residues; d marks the D form. Peptide text beside a SMILES is read from it. Nspe(4-Br) = C[C@H](NCC(=O)O)c1ccc(Br)cc1; Nspe = C[C@H](NCC(=O)O)c1ccccc1; Nlys = NCCCCNCC(=O)O

Assays:
K. pneumoniae JIE4212 = system: K. pneumoniae JIE4212
Summary of the method: (§1)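 Each strain, at 5 × 10^5 CFU ml^−1, is exposed to compound in Mueller–Hinton-based broth (cation-adjusted for antibiotics) and incubated 16–20 h, 37°C, 120 rpm. Bactericidal concentrations come from plating log10 dilutions of the wells on supplemented agar.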

A. baumannii 008 = system: A. baumannii 008
Summary of the method: as §1

K. pneumoniae JIE2713 = system: K. pneumoniae JIE2713
Summary of the method: as §1

A. baumannii 006 = system: A. baumannii 006
Summary of the method: as §1

En. cloacae 001 = system: En. cloacae 001
Summary of the method: as §1

En. cloacae 005 = system: En. cloacae 005
Summary of the method: as §1

En. cloacae 003 = system: En. cloacae 003
Summary of the method: as §1

S. aureus 04 = system: S. aureus 04
Summary of the method: as §1

A. baumannii 005 = system: A. baumannii 005
Summary of the method: as §1

[1] = system: Enteroc. faecalis NCTC 13 379
Summary of the method: as §1

S. aureus 117 = system: S. aureus 117
Summary of the method: as §1

P. aeruginosa 33 = system: P. aeruginosa 33
Summary of the method: as §1

P. aeruginosa 216 = system: P. aeruginosa 216
Summary of the method: as §1

E. coli 005 = system: E. coli 005
Summary of the method: as §1

S. aureus 38 = system: S. aureus 38
Summary of the method: as §1

P. aeruginosa AR-1270 = system: P. aeruginosa AR-1270
Summary of the method: as §1

E. coli 0015 = system: E. coli 0015
Summary of the method: as §1

K. pneumoniae JIE2709 = system: K. pneumoniae JIE2709
Summary of the method: as §1

A. baumannii 007 = system: A. baumannii 007
Summary of the method: as §1

S. aureus 105 = system: S. aureus 105
Summary of the method: as §1

E. coli 0011 = system: E. coli 0011
Summary of the method: as §1

E. coli 0010 = system: E. coli 0010
Summary of the method: as §1

A. baumannii ATCC 19 606 = system: A. baumannii ATCC 19 606
Summary of the method: as §1

C. auris CBS12373 = assay: Broth microdilution MIC; type: cell-based, Candida auris
[2] = K. pneumoniae JIE4212, MHB (melimine/Mel4 with 0.2% BSA, 0.01% acetic acid), mean MIC
[3] = A. baumannii 008, MHB (melimine/Mel4 with 0.2% BSA, 0.01% acetic acid), mean MIC
[4] = K. pneumoniae JIE2713, MHB (melimine/Mel4 with 0.2% BSA, 0.01% acetic acid), mean MIC
[5] = A. baumannii 006, MHB (melimine/Mel4 with 0.2% BSA, 0.01% acetic acid), mean MIC
[6] = En. cloacae 001, MHB (melimine/Mel4 with 0.2% BSA, 0.01% acetic acid), mean MIC
[7] = En. cloacae 005, MHB (melimine/Mel4 with 0.2% BSA, 0.01% acetic acid), mean MIC
[8] = En. cloacae 003, MHB (melimine/Mel4 with 0.2% BSA, 0.01% acetic acid), mean MIC
[9] = S. aureus 004, MHB (melimine/Mel4 with 0.2% BSA, 0.01% acetic acid), mean MIC
[10] = A. baumannii 005, MHB (melimine/Mel4 with 0.2% BSA, 0.01% acetic acid), mean MIC
[11] = Enteroc. faecalis NCTC 13 379, MHB (melimine/Mel4 with 0.2% BSA, 0.01% acetic acid), mean MIC
[12] = S. aureus 117, MHB (melimine/Mel4 with 0.2% BSA, 0.01% acetic acid), mean MIC
[13] = P. aeruginosa 33, MHB (melimine/Mel4 with 0.2% BSA, 0.01% acetic acid), mean MIC
[14] = P. aeruginosa 216, MHB (melimine/Mel4 with 0.2% BSA, 0.01% acetic acid), mean MIC
[15] = E. coli 005, MHB (melimine/Mel4 with 0.2% BSA, 0.01% acetic acid), mean MIC
[16] = S. aureus 38, MHB (melimine/Mel4 with 0.2% BSA, 0.01% acetic acid), mean MIC
[17] = P. aeruginosa AR-1270, MHB (melimine/Mel4 with 0.2% BSA, 0.01% acetic acid), mean MIC
[18] = E. coli 0015, MHB (melimine/Mel4 with 0.2% BSA, 0.01% acetic acid), mean MIC
[19] = K. pneumoniae JIE2709, MHB (melimine/Mel4 with 0.2% BSA, 0.01% acetic acid), mean MIC
[20] = A. baumannii 007, MHB (melimine/Mel4 with 0.2% BSA, 0.01% acetic acid), mean MIC
[21] = S. aureus 105, MHB (melimine/Mel4 with 0.2% BSA, 0.01% acetic acid), mean MIC
[22] = E. coli 0011, MHB (melimine/Mel4 with 0.2% BSA, 0.01% acetic acid), mean MIC
[23] = E. coli 0010, MHB (melimine/Mel4 with 0.2% BSA, 0.01% acetic acid), mean MIC
[24] = A. baumannii ATCC 19 606, MHB (melimine/Mel4 with 0.2% BSA, 0.01% acetic acid), mean MIC
[25] = CBS 12 373, RPMI 1640 with MOPS, 5 × 10^3 CFU ml^−1, ≥90% reduction (≥50% for fluconazole)

Compound: C[C@@H](c1ccc(Br)cc1)N(CC(=O)N(CCCCN)CC(=O)N(CC(=O)N(CC(=O)N(CCCCN)CC(N)=O)[C@@H](C)c1ccc(Br)cc1)[C@@H](C)c1ccccc1)C(=O)CN(C(=O)CNCCCCN)[C@@H](C)c1ccccc1 [TM12] (H-[Nlys][Nspe][Nspe(4-Br)][Nlys][Nspe][Nspe(4-Br)][Nlys]-NH2)
- MIC of peptidomimetics (K. pneumoniae JIE4212; JIE4212): 103.8 µM
- MIC of peptidomimetics (K. pneumoniae JIE4212; [2]): 125 µg/mL
- MIC of peptidomimetics (A. baumannii 008; 008): 51.8 µM
- MIC of peptidomimetics (A. baumannii 008; [3]): 62.5 µg/mL
- MIC of peptidomimetics (K. pneumoniae JIE2713; JIE2713): 103.8 µM
- MIC of peptidomimetics (K. pneumoniae JIE2713; [4]): 125 µg/mL
- MIC of peptidomimetics (A. baumannii 006; 006): 103.8 µM
- MIC of peptidomimetics (A. baumannii 006; [5]): 125 µg/mL
- MIC of peptidomimetics (En. cloacae 001): 13.0 µM
- MIC of peptidomimetics (En. cloacae 001; [6]): 15.6 µg/mL
- MIC of peptidomimetics (En. cloacae 005): 13.0 µM
- MIC of peptidomimetics (En. cloacae 005; [7]): 15.6 µg/mL
- MIC of peptidomimetics (En. cloacae 003): 3.3 µM
- MIC of peptidomimetics (En. cloacae 003; [8]): 3.9 µg/mL
- MIC of peptidomimetics (S. aureus 04; 04): 3.3 µM
- MIC of peptidomimetics (S. aureus 04; [9]): 3.9 µg/mL
- MIC of peptidomimetics (A. baumannii 005; 005): 51.8 µM
- MIC of peptidomimetics (A. baumannii 005; [10]): 62.5 µg/mL
- MIC of peptidomimetics [1, 11]: 7.8 µg/mL
- MIC of peptidomimetics ([1]; NCTC 13): 6.5 µM
- MIC of peptidomimetics (S. aureus 117; 117): 3.3 µM
- MIC of peptidomimetics (S. aureus 117; [12]): 3.9 µg/mL
- MIC of peptidomimetics (P. aeruginosa 33; 33): 3.3 µM
- MIC of peptidomimetics (P. aeruginosa 33; [13]): 3.9 µg/mL
- MIC of peptidomimetics (P. aeruginosa 216; 216): 25.9 µM
- MIC of peptidomimetics (P. aeruginosa 216; [14]): 31.3 µg/mL
- MIC of peptidomimetics (E. coli 005; 005): 103.8 µM
- MIC of peptidomimetics (E. coli 005; [15]): 125 µg/mL
- MIC of peptidomimetics (S. aureus 38; 38): 6.5 µM
- MIC of peptidomimetics (S. aureus 38; [16]): 7.8 µg/mL
- MIC of peptidomimetics (P. aeruginosa AR-1270; AR-1270): 103.8 µM
- MIC of peptidomimetics (P. aeruginosa AR-1270; [17]): 125 µg/mL
- MIC of peptidomimetics (E. coli 0015; 0015): 51.8 µM
- MIC of peptidomimetics (E. coli 0015; [18]): 62.5 µg/mL
- MIC of peptidomimetics (K. pneumoniae JIE2709; JIE2709): 103.8 µM
- MIC of peptidomimetics (K. pneumoniae JIE2709; [19]): 125 µg/mL
- MIC of peptidomimetics (A. baumannii 007; 007): 51.8 µM
- MIC of peptidomimetics (A. baumannii 007; [20]): 62.5 µg/mL
- MIC of peptidomimetics (S. aureus 105; 105): 6.5 µM
- MIC of peptidomimetics (S. aureus 105; [21]): 7.8 µg/mL
- MIC of peptidomimetics (E. coli 0011; 0011): 25.9 µM
- MIC of peptidomimetics (E. coli 0011; [22]): 31.3 µg/mL
- MIC of peptidomimetics (E. coli 0010; 0010): 103.8 µM
- MIC of peptidomimetics (E. coli 0010; [23]): 125 µg/mL
- MIC of peptidomimetics (A. baumannii ATCC 19 606; [24]): 125 µg/mL
- MIC of peptidomimetics (A. baumannii ATCC 19 606; ATCC 19): 103.8 µM
- MIC against C. auris (C. auris CBS12373; [25]): 3.9 µg/mL
- MIC against C. auris (C. auris CBS12373; CBS12373): 3.2 µM

Compound: C[C@@H](c1ccc(Br)cc1)N(CC(=O)N(CCCCN)CC(=O)N(CC(=O)N(CC(=O)N(CCCCN)CC(N)=O)[C@@H](C)c1ccc(Br)cc1)[C@@H](C)c1ccc(Br)cc1)C(=O)CN(C(=O)CNCCCCN)[C@@H](C)c1ccc(Br)cc1 [TM14] (H-[Nlys][Nspe(4-Br)][Nspe(4-Br)][Nlys][Nspe(4-Br)][Nspe(4-Br)][Nlys]-NH2)
- MIC of peptidomimetics (K. pneumoniae JIE4212; JIE4212): 23.0 µM
- MIC of peptidomimetics (K. pneumoniae JIE4212; [2]): 31.3 µg/mL
- MIC of peptidomimetics (A. baumannii 008; 008): 23.0 µM
- MIC of peptidomimetics (A. baumannii 008; [3]): 31.3 µg/mL
- MIC of peptidomimetics (K. pneumoniae JIE2713; JIE2713): 5.7 µM
- MIC of peptidomimetics (K. pneumoniae JIE2713; [4]): 7.8 µg/mL
- MIC of peptidomimetics (A. baumannii 006; 006): 11.4 µM
- MIC of peptidomimetics (A. baumannii 006; [5]): 15.6 µg/mL
- MIC of peptidomimetics (En. cloacae 001): 11.5 µM
- MIC of peptidomimetics (En. cloacae 001; [6]): 15.6 µg/mL
- MIC of peptidomimetics (En. cloacae 005): 45.9 µM
- MIC of peptidomimetics (En. cloacae 005; [7]): 62.5 µg/mL
- MIC of peptidomimetics (En. cloacae 003): 45.9 µM
- MIC of peptidomimetics (En. cloacae 003; [8]): 62.5 µg/mL
- MIC of peptidomimetics (S. aureus 04; 04): 5.7 µM
- MIC of peptidomimetics (S. aureus 04; [9]): 7.8 µg/mL
- MIC of peptidomimetics (A. baumannii 005; 005): 11.4 µM
- MIC of peptidomimetics (A. baumannii 005; [10]): 15.6 µg/mL
- MIC of peptidomimetics [1, 11]: 7.8 µg/mL
- MIC of peptidomimetics ([1]; NCTC 13): 5.7 µM
- MIC of peptidomimetics (S. aureus 117; 117): 5.7 µM
- MIC of peptidomimetics (S. aureus 117; [12]): 7.8 µg/mL
- MIC of peptidomimetics (P. aeruginosa 33; 33): 11.5 µM
- MIC of peptidomimetics (P. aeruginosa 33; [13]): 15.6 µg/mL
- MIC of peptidomimetics (P. aeruginosa 216; 216): 11.5 µM
- MIC of peptidomimetics (P. aeruginosa 216; [14]): 15.6 µg/mL
- MIC of peptidomimetics (E. coli 005; 005): 23.0 µM
- MIC of peptidomimetics (E. coli 005; [15]): 31.3 µg/mL
- MIC of peptidomimetics (S. aureus 38; 38): 2.9 µM
- MIC of peptidomimetics (S. aureus 38; [16]): 3.9 µg/mL
- MIC of peptidomimetics (P. aeruginosa AR-1270; AR-1270): 45.9 µM
- MIC of peptidomimetics (P. aeruginosa AR-1270; [17]): 62.5 µg/mL
- MIC of peptidomimetics (E. coli 0015; 0015): 23.0 µM
- MIC of peptidomimetics (E. coli 0015; [18]): 31.3 µg/mL
- MIC of peptidomimetics (K. pneumoniae JIE2709; JIE2709): 45.9 µM
- MIC of peptidomimetics (K. pneumoniae JIE2709; [19]): 62.5 µg/mL
- MIC of peptidomimetics (A. baumannii 007; 007): 23.0 µM
- MIC of peptidomimetics (A. baumannii 007; [20]): 31.3 µg/mL
- MIC of peptidomimetics (S. aureus 105; 105): 2.9 µM
- MIC of peptidomimetics (S. aureus 105; [21]): 3.9 µg/mL
- MIC of peptidomimetics (E. coli 0011; 0011): 23.0 µM
- MIC of peptidomimetics (E. coli 0011; [22]): 31.3 µg/mL
- MIC of peptidomimetics (E. coli 0010; 0010): 23.0 µM
- MIC of peptidomimetics (E. coli 0010; [23]): 31.3 µg/mL
- MIC of peptidomimetics (A. baumannii ATCC 19 606; [24]): 31.3 µg/mL
- MIC of peptidomimetics (A. baumannii ATCC 19 606; ATCC 19): 23.0 µM
- MIC against C. auris (C. auris CBS12373; [25]): 3.9 µg/mL
- MIC against C. auris (C. auris CBS12373; CBS12373): 2.9 µM
